In US20030104945A1, “2,4-Diamino-1,3,5-triazines, their preparation, and their use as herbicides and plant growth regulators” (priority 2001, published 2003):

Key:
Format in all cases: in vivo
[1] = test system: harmful plants such as Sinapis alba, Echinochloa crus-galli, Lolium multiflorum, Stellaria media, Cyperus iria, Amaranthus retroflexus, Setaria viridus and …; assay: Post-emergence herbicidal action (greenhouse pot test); settings: three-leaf stage, application rate of 1 kg and less of active substance per hectare, scored after approx. 3 to 4 weeks vs untreated controls
Method: Seeds or rhizome sections of monocotyledonous and dicotyledonous weeds are placed in sandy loam soil in plastic pots, covered with soil and grown in the greenhouse under good growth conditions. Three weeks after sowing, the experimental plants are treated at the three-leaf stage. The compounds according to the invention, which are formulated as wettable powders or as emulsion concentrates, are sprayed at various rates onto the green plant organs at an application rate of 600 to 800 l of water per ha (converted). After the experimental plants have remained in the greenhouse for approx. 3 to 4 weeks under optimal growth conditions, the effect of the compositions is scored visually in comparison with untreated controls. The substances according to the invention also have a good herbicidal action against a broad spectrum of economically important grass weeds and broad-leaved weeds when applied post-emergence.

[2] = test system: harmful plants which are typical of rice crops such as, for example, Cyperus monti, Echinochloa crus-galli and Sagittaria pygmaea; assay: Activity against harmful plants in rice (paddy rice conditions); settings: poured into paddy water at various dosages; scored about three weeks after application vs untreated controls; note: test concentration or dose not given here
Method: Transplanted and seeded rice and typical grass weeds and broad-leaved weeds in rice crops are grown in the greenhouse under paddy rice conditions (depth of the paddy water: 2-3 cm) in sealed plastic pots until they have reached the three-leaf stage (Echinochloa crus-galli 1.5-leaf). They are then treated with the compounds according to the invention. To this end, the formulated active substances are suspended, dissolved or emulsified in water and the product is poured into the paddy water of the test plants at various dosages. After the treatment has been carried out thus, the test plants are placed in the greenhouse under optimal growth conditions and kept like this over the entire experimental period.
About three weeks after application, the evaluation is carried out by is of visually scoring the plant damage in comparison with untreated controls.

[3] = test system: harmful plants such as Stellaria media, Lolium multiflorum, Amaranthus retroflexus, Sinapis alba, Avena sativa and Setaria viridis; assay: Pre-emergence herbicidal action (greenhouse pot test); settings: application rate of 1 kg or less active substance per hectare, scored after 3 to 4 weeks vs untreated controls
From the text: Seeds and rhizome sections of monocotyledonous and dicotyledonous harmful plants are placed in sandy loam in plastic pots and covered with soil. The compounds according to the invention which are formulated in the form of wettable powders or emulsion concentrates at various rates, are then applied to the surface of the covering soil as aqueous suspension or emulsion at an application rate of 600 to 800 l of water per ha (converted).
After the treatment, the pots are placed in the greenhouse and kept under good growth conditions for the weeds. Visual scoring of the plant damage or the adverse effect on emergence is done after the test plants have emerged after an experimental period of 3 to 4 weeks in comparison with untreated controls.

CC(Nc1nc(N)nc(C(C)(C)F)n1)[C@@H]1C[C@H]1c1ccccc1 (relative stereo) [Example 1-1]
very good herbicidal activity: herbicidal activity, visual scoring [1] | herbicidal activity, visual scoring of plant damage [2] | herbicidal activity, visual scoring of plant damage or adverse effect on emergence [3]

CC(F)c1nc(N)nc(NC(C)[C@@H]2C[C@H]2c2ccccc2)n1 (relative stereo) [Example 1-2, 2-Amino-4-(1-fluoroethyl)-6-[1-(trans-2-phenylcyclopropyl)-1-ethylamino]-1,3,5-triazine]
very good herbicidal activity: herbicidal activity, visual scoring [1] | herbicidal activity, visual scoring of plant damage [2] | herbicidal activity, visual scoring of plant damage or adverse effect on emergence [3]

CCC(F)c1nc(N)nc(NC(C)[C@@H]2C[C@H]2c2ccccc2)n1 (relative stereo) [Example 1-3]
very good herbicidal activity: herbicidal activity, visual scoring [1] | herbicidal activity, visual scoring of plant damage [2] | herbicidal activity, visual scoring of plant damage or adverse effect on emergence [3]

CC(C)c1nc(N)nc(NC(C)[C@@H]2C[C@H]2c2ccccc2)n1 (relative stereo) [Example 1-4]
very good herbicidal activity: herbicidal activity, visual scoring [1] | herbicidal activity, visual scoring of plant damage [2] | herbicidal activity, visual scoring of plant damage or adverse effect on emergence [3]

CCc1nc(N)nc(NC(C)[C@@H]2C[C@H]2c2ccccc2)n1 (relative stereo) [Example 1-6]
very good herbicidal activity: herbicidal activity, visual scoring [1] | herbicidal activity, visual scoring of plant damage [2] | herbicidal activity, visual scoring of plant damage or adverse effect on emergence [3]

CCC(Nc1nc(N)nc(C(C)(C)F)n1)[C@@H]1C[C@H]1c1ccccc1 (relative stereo) [Example 2-1, 2-Amino-4-(1-fluoro-1-methylethyl)-6-[1-(trans-2-phenylcyclopropyl)prop-1-ylamino]-1,3,5-triazine]
very good herbicidal activity: herbicidal activity, visual scoring [1] | herbicidal activity, visual scoring of plant damage [2] | herbicidal activity, visual scoring of plant damage or adverse effect on emergence [3]

CCC(Nc1nc(N)nc(C(C)C)n1)[C@@H]1C[C@H]1c1ccccc1 (relative stereo) [Example 2-2]
very good herbicidal activity: herbicidal activity, visual scoring [1] | herbicidal activity, visual scoring of plant damage [2] | herbicidal activity, visual scoring of plant damage or adverse effect on emergence [3]

CCC(Nc1nc(N)nc(C(C)F)n1)[C@@H]1C[C@H]1c1ccccc1 (relative stereo) [Example 2-3]
very good herbicidal activity: herbicidal activity, visual scoring [1] | herbicidal activity, visual scoring of plant damage [2] | herbicidal activity, visual scoring of plant damage or adverse effect on emergence [3]

CCC(F)c1nc(N)nc(NC(CC)[C@@H]2C[C@H]2c2ccccc2)n1 (relative stereo) [Example 2-8]
very good herbicidal activity: herbicidal activity, visual scoring [1] | herbicidal activity, visual scoring of plant damage [2] | herbicidal activity, visual scoring of plant damage or adverse effect on emergence [3]

CC(C)(F)c1nc(N)nc(NC(C2CC2)[C@@H]2C[C@H]2c2ccccc2)n1 (relative stereo) [Example 3-1]
very good herbicidal activity: herbicidal activity, visual scoring [1] | herbicidal activity, visual scoring of plant damage [2] | herbicidal activity, visual scoring of plant damage or adverse effect on emergence [3]

CC(C)c1nc(N)nc(NC(C2CC2)[C@@H]2C[C@H]2c2ccccc2)n1 (relative stereo) [Example 3-2]
very good herbicidal activity: herbicidal activity, visual scoring [1] | herbicidal activity, visual scoring of plant damage [2] | herbicidal activity, visual scoring of plant damage or adverse effect on emergence [3]

CC(F)c1nc(N)nc(NC(C2CC2)[C@@H]2C[C@H]2c2ccccc2)n1 (relative stereo) [Example 3-3]
very good herbicidal activity: herbicidal activity, visual scoring [1] | herbicidal activity, visual scoring of plant damage [2] | herbicidal activity, visual scoring of plant damage or adverse effect on emergence [3]

CCC(F)c1nc(N)nc(NC(C2CC2)[C@@H]2C[C@H]2c2ccccc2)n1 (relative stereo) [Example 3-4]
very good herbicidal activity: herbicidal activity, visual scoring [1] | herbicidal activity, visual scoring of plant damage [2] | herbicidal activity, visual scoring of plant damage or adverse effect on emergence [3]

CC(F)c1nc(N)nc(NC(C2CC2)[C@@H]2C[C@H]2c2cc(Cl)cc(Cl)c2)n1 (relative stereo) [Example 3-26]
very good herbicidal activity: herbicidal activity, visual scoring [1] | herbicidal activity, visual scoring of plant damage [2] | herbicidal activity, visual scoring of plant damage or adverse effect on emergence [3]

CCC(F)c1nc(N)nc(NC(C2CC2)[C@@H]2C[C@H]2c2cc(Cl)cc(Cl)c2)n1 (relative stereo) [Example 3-27]
very good herbicidal activity: herbicidal activity, visual scoring [1] | herbicidal activity, visual scoring of plant damage [2] | herbicidal activity, visual scoring of plant damage or adverse effect on emergence [3]

CC(C)c1nc(N)nc(NC(C2CC2)[C@@H]2C[C@H]2c2cc(Cl)cc(Cl)c2)n1 (relative stereo) [Example 3-28]
very good herbicidal activity: herbicidal activity, visual scoring [1] | herbicidal activity, visual scoring of plant damage [2] | herbicidal activity, visual scoring of plant damage or adverse effect on emergence [3]

CC(C)(F)c1nc(N)nc(NC(C2CCC2)[C@@H]2C[C@H]2c2ccccc2)n1 (relative stereo) [Example 4-1]
very good herbicidal activity: herbicidal activity, visual scoring [1] | herbicidal activity, visual scoring of plant damage [2] | herbicidal activity, visual scoring of plant damage or adverse effect on emergence [3]

CCC(F)(CC)c1nc(N)nc(NC(C2CCC2)[C@@H]2C[C@H]2c2ccccc2)n1 (relative stereo) [Example 4-2]
very good herbicidal activity: herbicidal activity, visual scoring [1] | herbicidal activity, visual scoring of plant damage [2] | herbicidal activity, visual scoring of plant damage or adverse effect on emergence [3]

CC(F)c1nc(N)nc(NC(C2CCC2)[C@@H]2C[C@H]2c2ccccc2)n1 (relative stereo) [Example 4-3]
very good herbicidal activity: herbicidal activity, visual scoring [1] | herbicidal activity, visual scoring of plant damage [2] | herbicidal activity, visual scoring of plant damage or adverse effect on emergence [3]

CCC(F)c1nc(N)nc(NC(C2CCC2)[C@@H]2C[C@H]2c2ccccc2)n1 (relative stereo) [Example 4-4]
very good herbicidal activity: herbicidal activity, visual scoring [1] | herbicidal activity, visual scoring of plant damage [2] | herbicidal activity, visual scoring of plant damage or adverse effect on emergence [3]

CC(C)c1nc(N)nc(NC(C2CCC2)[C@@H]2C[C@H]2c2ccccc2)n1 (relative stereo) [Example 4-27]
very good herbicidal activity: herbicidal activity, visual scoring [1] | herbicidal activity, visual scoring of plant damage [2] | herbicidal activity, visual scoring of plant damage or adverse effect on emergence [3]

CC(C)(F)c1nc(N)nc(NC(C2CCC2)[C@@H]2C[C@H]2c2cccc(Cl)c2)n1 (relative stereo) [Example 4-28]
very good herbicidal activity: herbicidal activity, visual scoring [1] | herbicidal activity, visual scoring of plant damage [2] | herbicidal activity, visual scoring of plant damage or adverse effect on emergence [3]
